Measurements as given in patent US12433861B2, “Compositions and methods for treating reperfusion injury or hemorrhage after recanalization therapy” (GNT Pharma Co., Ltd., priority 2020, dated 2025).

Tests used:
healthy volunteers = settings: human, in vivo
Description: NMDA receptor antagonists were reported to produce serious side effects in healthy humans.

[1] = test system: acute ischemic stroke patients; test: ENIS phase II trial: acute ischemic stroke patients receiving a thrombolytic drug; format: in vivo, human; settings: for good recovery ratio (patients with NIHSS score of 0-1 or decrease of NIHSS score≥4): 14 days; for ratio of mRS 0 (no symptoms at all): 6,000 mg
Protocol: The ENIS trial was to examine efficacy as well as safety of the intravenous infusions of nelonemdazK for acute ischemic stroke patients (35-80 years old) receiving at least one kind of thrombolytic drugs including rtPA or urokinase within 8 hours of onset. A total of 238 patients were enrolled for the ENIS trial and allocated randomly in a double-blinded manner to one of 4 groups for the intravenous infusions of test drugs as follows: (Group A) placebo [0.9% normal saline], (Group B) 2,750 mg nelonemdazK for 5 days [500 mg for 1st infusion followed by 2nd-10th infusions approximately at 12 h intervals (250 mg for each infusion)], (Group C) 5,250 mg nelonemdazK for 5 days [750 mg for 1st infusion followed by 2nd-10th infusions approximately at 12 h intervals (500 mg for each)], and (Group D) 6,000 mg nelonemdazK for 5 days [1500 mg for 1st infusion followed by 2nd-10th infusions approximately at 12 h intervals (500 mg for each)]. Acute ischemic stroke patients due to occlusion in internal carotid artery system within 8 hours of onset were enrolled. Patients with The National Institutes of Health Stroke Scale (NIHSS; range 0-42, with higher scores indicating greater stroke severity) scores of 4 to 22 and limb weakness including motor arm or motor leg score≥2 of NIHSS were included. All the patients received at least one kind of thrombolytic therapy before treatment of any study drug.
The beneficial effects of nelonemdazK were further observed by analyzing “the ratio of patients with NIHSS score of 0-1 or decrease of NIHSS score≥4 (=the good recovery ratio)” at 14 days after drug treatment. […] This implies that the beneficial effects of nelonemdazK are better for moderate to severe ([…]) ischemic stroke patients than mild (NIHSS score≤5) patients.

adult rats = settings: rat, in vivo, iv, 200 mg/kg
normal adult rats = test: rt-PA-induced hemorrhagic transformation model (intracortical rt-PA) in normal adult rats: Evans blue extravasation and infarct volume; format: in vivo, rat; settings: intracortical 0.66 mg/kg rt-PA
Protocol: Male Sprague-Dawley rats (340-380 g) were anesthetized with chloral hydrate (400 mg/kg, IP). The animals received intracortical injection of rt-PA (0.66 mg/kg; total […]) coordinated with 2.6 mm posterior, 5.4 mm lateral, and 3.8 mm from bregma at a flow rate of 0.5 μL/min using a infusion pump and Hamilton syringe. After the end of infusion, the syringe was removed from the cortex and nelonemdazK (30 mg/kg) was administrated through femoral vein for 5 min (3 mg/mL; 10 mL/kg). Six hours later, the rats were anesthetized and intravenously administrated with 4% Evans blue solution. Twenty minutes later, the rats were perfused transcardially first with saline and next with 4% paraformaldehyde. The brain was removed immediately and placed in the fixative for 15 min and scanned for evaluation of extravasation area of Evans blue to indirectly measure rt-PA-induced hemorrhagic transformation which occurs as a result of the breakdown of the blood-brain barrier (Jiang et al., 2018). To evaluate brain damage volume, the brain tissues were stored in 4% paraformaldehyde for 3 days and then processed overnight for paraffin embedding and cresyl violet staining. The extravasation area was measured by TINA imaging system (KAIST, Korea).
Animals received the intracortical injection of 0.66 mg/kg rt-PA that was followed by subsequent IV administration of vehicle or 30 mg/kg nelonemdazK 5 min later. Hemorrhagic transformation was investigated by analyzing extravasation of Evans blue dye at 6 h after rt-PA. (Upper panel) Compared to the sham control group, administration of rt-PA produced hemorrhagic transformation evident by extravasation of Evans blue, which was prevented by subsequent treatment with nelonemdazK.
Animals received sham operation or the intracortical injection of 0.66 mg/kg rt-PA, alone or with the subsequent intravenous administration of vehicle or 30 mg/kg nelonemdazK. Animals were sacrificed 6 h later and infarct volume was analyzed after staining brain sections with cresyl violet. (Upper panel) Photographs of brain sections stained with cresyl violet. Note brain lesion following the intracortical injections of rt-PA that was prevented by the administration of nelonemdazK. (Lower panel) Quantitation of infarct volume (Mean±S.E.M., n=3 for sham and 6 for rt-PA-treated groups) by summation of lesion areas in brain sections.

O=C([O-])c1cc(NCc2c(F)c(F)c(C(F)(F)F)c(F)c2F)ccc1O.[K+] [nelonemdazK, 2-Hydroxy-5-(2,3,5,6-tetrafluoro-4-trifluoromethylbenzylamino)benzoic acid potassium salt]
Number of subjects showing abnormal behavior: Agitation (healthy volunteers): 0
Number of subjects showing abnormal behavior: Catatonia (healthy volunteers): 0
Number of subjects showing abnormal behavior: Confusion (healthy volunteers): 0
Number of subjects showing abnormal behavior: Hallucination (healthy volunteers): 0
Number of subjects showing abnormal behavior: Paranoia (healthy volunteers): 0
percentage of mRS 0-2 (functional independence) ([1]; 6,000 mg for 5 days, 14, 30, and 90 days, baseline NIHSS 6-24, vs placebo, potassium salt): increases
good recovery ratio (patients with NIHSS score of 0-1 or decrease of NIHSS score≥4) ([1]; 6,000 mg (N=9), baseline NIHSS 9-24 (placebo 20%, p=0.022)): 50%
good recovery ratio (patients with NIHSS score of 0-1 or decrease of NIHSS score≥4) ([1]; 6,000 mg (N=36), baseline NIHSS 6-24 (placebo 25.53%, p=0.106)): 41.67%
ratio of mRS 0 (no symptoms at all) ([1]; at 14 days, baseline NIHSS 6-24 (placebo 12%)): 25%
ratio of mRS 0 (no symptoms at all) ([1]; at 30 days, baseline NIHSS 6-24 (placebo 16%)): 34%
ratio of mRS 0 (no symptoms at all) ([1]; at 90 days, baseline NIHSS 6-24 (placebo 26%)): 45%
neuronal injury (adult rats): not observed
hemorrhagic transformation evident by extravasation of Evans blue (normal adult rats; 30 mg/kg IV 5 min later, 6 h after rt-PA): prevented
brain lesion (cresyl violet) (normal adult rats; 30 mg/kg IV, 6 h): prevented
volume of Evans blue extravasation (normal adult rats; 30 mg/kg IV, 6 h, vs vehicle, p<0.05): significantly reduced
infarct volume (normal adult rats; 30 mg/kg IV, 6 h after rt-PA, vs vehicle): significantly reduced
